Experimental data taken from patent US20210102239A1, “METHOD FOR DETERMINING BACTERIAL NUMBER IN SPECIMEN” (MITSUI CHEMICALS, INC., priority 2017, published 2021).

Experiments:
[1] = system: Escherichia coli; experiment: Case 4: pathogen identification/quantification and biomarkers in blood before/after antibiotic treatment; assay type: in vivo, human (sepsis patient); details: for BT (body temperature): pretreatment 37.0; for IL-6: pretreatment 122; for CRP: pretreatment 185.9; for WBC: pretreatment 285.6; for Presepsin: pretreatment 1298; for Pathogen (Ave): pretreatment 1314
Protocol: (§1) First, bacterial cells were collected from a blood specimen by centrifuging the whole blood at a low rate of 100×g for 5 minutes to separate blood cells, centrifuging the resultant supernatant (containing buffy coat) at a high rate of 20,000×g for 10 minutes to obtain a pellet.
(§2) Using DNA of a pathogenic bacterium taken from the blood specimen according to the method of Step 1 as a template, nested PCR (1st PCR: 30 cycle→100 double dilution→2nd PCR: 30 to 35 cycles) is carried out. The bacterial cells in patient specimens vary in a wide range from very small to large number. Since it is difficult to accurately determine the bacterial number in a single cycle of PCR, nested PCR methods are used in combination.
(§3) Subsequently, using pathogenic bacterium DNA of Step 1 as a template, nested PCR was carried out together with a quantification control in the conditions described in Step 2. In the 1st PCR and 2nd PCR for quantification, the following bacterial universal primer (primer for detecting almost all bacteria) was used. The target region of the bacterial universal primer is a bacterial conserved region (base sequence region common in almost all bacteria) of a 16S ribosomal RNA gene. A predetermined bacterium is quantified by a bacterial species-specific primer; however, a pathogenic bacterium is not identified in the early stage of sepsis. Because of this, a bacterial species-specific primer cannot be used. Accordingly, unless a bacterial universal primer is used, an unidentified bacterium cannot be detected.
(§4) As mentioned above, E. coli DNA samples of three different concentrations and of a known bacterial number were used as quantification controls. Based on the data of three quantification controls different in concentration, a calibration curve was prepared. Based on bacterial DNA extracted from a patient specimen, the number of pathogenic bacterial cells was determined. Since the number of bacterial cells was obtained as an E. coli cell-number equivalent used as a quantification control, the number of bacterial cells in a specimen can be more easily, rapidly and accurately determined.
(§5) For the reason, it is necessary to make a correction based on the operon copy number per bacterium species in order to more accurately determine bacterial number. Since identification and qualification of a pathogenic bacterium are carried out concurrently in Step 3 and Step 4, the number of pathogenic bacterial cells can be corrected based on 16S ribosomal RNA operon copy number of the bacterium identified to computationally obtain the correct number of bacterial cells.
(§6) According to Step 1 to Step 5 of Example 1, a pathogenic bacterium rapid identification/quantification test using sepsis patient's specimens (EDTA blood collection tube, 2 mL) was carried out. […] Blood was sampled before treatment with an antibiotic (pretreatment), and 24 hours (after 24 hrs.) and 72 hours (after 72 hrs.) after administration of the antibiotic. At the three points, a pathogenic bacterium rapid identification/quantification test was carried out together with measurement of body temperature, white blood cell count, CRP, presepsin and IL-6. Furthermore, a blood specimen sampled before the antibiotic treatment was subjected to a blood culture method to identify a pathogenic bacterium and subjected to a drug sensitivity test. General information about individual cases is as follows.
Case 4: • person, sepsis associated with urinary tract infection • Tm mapping method: Escherichia coli (Dist. value=0.29) • blood culture/urine culture: Escherichia coli • antibiotics substance: meropenem (sensitive)

[2] = system: Escherichia coli; experiment: Case 1: pathogen count (nested PCR) and biomarkers in blood before/after antibiotic treatment; assay type: in vivo, human (sepsis patient); details: for BT (body temperature): pretreatment 37.0; for IL-6: pretreatment 122; for CRP: pretreatment 185.9; for WBC: pretreatment 285.6; for Presepsin: pretreatment 1298; for Pathogen (Ave): pretreatment 1314
Protocol: as §1, §2, §3, §4
as §6, with “4” for “5”, “quantification” for “identification/quantification”
Case 1: • person, sepsis associated with urinary tract infection • blood culture/urine culture: Escherichia coli • antibiotic substance: meropenem (sensitive)

[3] = system: Escherichia coli; experiment: drug sensitivity test of the pathogenic bacterium from blood culture; assay type: cell-based; details: isolate from blood specimen sampled before antibiotic treatment
Protocol: as §6, with “4” for “5”, “quantification” for “identification/quantification”
as §6, with “Furthermore, a blood specimen sampled before the antibiotic treatment was subjected to a blood culture method to identify a pathogenic bacterium and subjected to a drug sensitivity test. General information about individual cases is as follows.” left out

[4] = system: Escherichia coli; experiment: Case 5: pathogen identification/quantification and biomarkers in blood before/after antibiotic treatment; assay type: in vivo, human (sepsis patient); details: for CRP: pretreatment 1.1; for BT (body temperature): pretreatment 39.6; for WBC: pretreatment 168.3; for Presepsin: pretreatment 343; for IL-6: pretreatment 678; for Pathogen (Ave): pretreatment 3600
Protocol: as §1, §2, §3
(§7) As mentioned above, E. coli DNA samples of three different concentrations and of a known bacterial number were used as quantification controls. Based on the data of three quantification controls different in concentration, a calibration curve was prepared. Based on bacterial DNA extracted from a patient specimen, the number of pathogenic bacterial cells was determined.
as §5, §6

[5] = system: Enterobacter aerogenes; experiment: drug sensitivity test of the pathogenic bacterium from blood culture; assay type: cell-based; details: Case 7, isolate from blood specimen sampled before antibiotic treatment
Protocol: as §6

[6] = system: Streptococcus dysgalactiae; experiment: Case 6: pathogen identification/quantification and biomarkers in blood before/after antibiotic treatment; assay type: in vivo, human (sepsis patient); details: for BT (body temperature): pretreatment 39.7; for WBC: pretreatment 89.5; for IL-6: pretreatment 115; for CRP: pretreatment 136.1; for Presepsin: pretreatment 1373; for Pathogen (Ave): pretreatment 2651
Protocol: as §1, §2, §3, §7, §5, §6

[7] = system: Escherichia coli; experiment: Case 3: pathogen count (nested PCR) and biomarkers in blood before/after antibiotic treatment; assay type: in vivo, human (sepsis patient); details: for CRP: pretreatment 1.1; for BT (body temperature): pretreatment 39.6; for WBC: pretreatment 168.3; for Presepsin: pretreatment 343; for IL-6: pretreatment 678; for Pathogen (Ave): pretreatment 3600
Protocol: as §1, §2, §3, §4
as §6, with “4” for “5”, “quantification” for “identification/quantification”
Case 3: • person, sepsis associated with urinary tract infection • blood culture/urine culture: Escherichia coli • antibiotics substance: tazobactam/piperacillin (sensitive)

[8] = system: Enterobacter aerogenes; experiment: Case 7: pathogen identification/quantification and biomarkers in blood before/after antibiotic treatment; assay type: in vivo, human (sepsis patient); details: for BT (body temperature): pretreatment 38.8; for WBC: pretreatment 59.4; for CRP: pretreatment 72.3; for Presepsin: pretreatment 1322; for Pathogen (Ave): pretreatment 41083; for IL-6: pretreatment 238000
Protocol: as §1, §2, §3, §7, §5, §6

## C[C@@H](O)[C@H]1C(=O)N2C(C(=O)O)=C(S[C@@H]3CN[C@H](C(=O)N(C)C)C3)[C@H](C)[C@H]12 [meropenem]
[1]; Case 4, 24 h after antibiotic
  BT (body temperature): 37.9 °C
  IL-6: 85.8 pg/mL
  CRP: 223.1 mg/L
  WBC: 301.4 × 100/μL
  Presepsin: 1729 ng/mL
  Pathogen (Ave): 248 cells/ml
[1]; Case 4, 72 h after antibiotic
  BT (body temperature): 37.2 °C
  IL-6: 20.7 pg/mL
  CRP: 86.4 mg/L
  WBC: 98.7 × 100/μL
  Presepsin: 1138 ng/mL
  Pathogen (Ave): 0 cells/ml
[2]; Case 1, 24 h after antibiotic
  BT (body temperature): 37.9 °C
  IL-6: 85.8 pg/mL
  CRP: 223.1 mg/L
  WBC: 301.4 × 100/μL
  Presepsin: 1729 ng/mL
  Pathogen (Ave): 248 cells/ml
[2]; Case 1, 72 h after antibiotic
  BT (body temperature): 37.2 °C
  IL-6: 20.7 pg/mL
  CRP: 86.4 mg/L
  WBC: 98.7 × 100/μL
  Presepsin: 1138 ng/mL
  Pathogen (Ave): 0 cells/ml
[3]
  drug sensitivity: sensitive

## tazobactam/piperacillin
[4]; Case 5, 24 h after antibiotic
  CRP: 9.3 mg/L
  BT (body temperature): 36.6 °C
  WBC: 61.4 × 100/μL
  Presepsin: 267 ng/mL
  IL-6: 5 pg/mL
  Pathogen (Ave): 2102 cells/ml
[4]; Case 5, 72 h after antibiotic
  CRP: 2.9 mg/L
  BT (body temperature): 37.2 °C
  WBC: 49.2 × 100/μL
  Presepsin: 501 ng/mL
  IL-6: 6.3 pg/mL
  Pathogen (Ave): 2 cells/ml
[5]
  drug sensitivity: sensitive
[6]; Case 6, 24 h after antibiotic
  BT (body temperature): 37.0 °C
  WBC: 77.3 × 100/μL
  IL-6: 85.3 pg/mL
  CRP: 139.8 mg/L
  Presepsin: 854 ng/mL
  Pathogen (Ave): 308 cells/ml
[6]; Case 6, 72 h after antibiotic
  BT (body temperature): 37.2 °C
  WBC: 54.1 × 100/μL
  IL-6: 59.4 pg/mL
  CRP: 43.2 mg/L
  Presepsin: 708 ng/mL
  Pathogen (Ave): 20 cells/ml
[7]; Case 3, 24 h after antibiotic
  CRP: 9.3 mg/L
  BT (body temperature): 36.6 °C
  WBC: 61.4 × 100/μL
  Presepsin: 267 ng/mL
  IL-6: 5 pg/mL
  Pathogen (Ave): 2102 cells/ml
[7]; Case 3, 72 h after antibiotic
  CRP: 2.9 mg/L
  BT (body temperature): 37.2 °C
  WBC: 49.2 × 100/μL
  Presepsin: 501 ng/mL
  IL-6: 6.3 pg/mL
  Pathogen (Ave): 2 cells/ml
[8]; Case 7, 24 h after antibiotic
  BT (body temperature): 38.4 °C
  WBC: 258.5 × 100/μL
  CRP: 107 mg/L
  Presepsin: 1516 ng/mL
  Pathogen (Ave): 19156 cells/ml
  IL-6: 41700 pg/mL
[8]; Case 7, 72 h after antibiotic
  BT (body temperature): 36.4 °C
  WBC: 198.2 × 100/μL
  CRP: 241.4 mg/L
  Presepsin: 2473 ng/mL
  Pathogen (Ave): 59 cells/ml
  IL-6: 176 pg/mL
[3]
  drug sensitivity: sensitive
